# In the supplement of paper PMC10307832:
# Compound: COC1=CC=C(C=C1)COC2=C(C=C(C=C2)CC3=CN=C(N=C3N)N)OC [GW-2580] + COc1cc2c(Oc3ccc(NC(=O)C4(C(=O)Nc5ccc(F)cc5)CC4)cc3F)ccnc2cc1OCCCN1CCOCC1 [Foretinib] (partner 0.25 µM)
# Assay: relative viability (nuclei count vs DMSO), 5 days (fraction); higher = more cells survive
# Details: first compound 8 µM
# In short: (§1)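 Values are medians from duplicate plates. Each reflects relative viability, defined as the nuclei count of treated wells over that of vehicle wells. Lung cancer cell lines in 1536-well plates were pin-tool dosed one day after seeding with one drug alone or with a fixed anchor-drug dose plus five library-drug doses (not always all listed) in √10 steps, then fixed, stained and imaged at 4× after 5 days.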
row,Cell Line,relative viability
1,NCI-H2126,1.28
2,EMC-BAC-2,0.865
3,NCI-H2085,0.758
4,Calu-6,0.858
5,HCC-366,0.791
6,NCI-H1666,0.991
7,NCI-H596,0.823
8,LK-2,1.2
9,NCI-H2087,0.937
10,SK-MES-1,0.915
11,H3255,0.829
12,COR-L23,0.882
13,COR-L 105,0.993
14,IA-LM,0.952
15,LOU-NH91,1.02
16,ChaGo-K-1,0.881
17,A549,0.902
18,HCC-78,0.497
19,NCI-H2009,1.17
20,NCI-H661,0.771
21,SK-LU-1,0.816
22,NCI-H1299,0.971
23,NCI-H2228,0.848
24,NCI-H2023,0.779
25,NCI-H1563,0.905

# Compound: COC1=CC=C(C=C1)COC2=C(C=C(C=C2)CC3=CN=C(N=C3N)N)OC [GW-2580] + Cc1cc(Nc2cc(N3CCN(C)CC3)nc(Sc3ccc(NC(=O)C4CC4)cc3)n2)n[nH]1 [Tozasertib] (partner 0.1 µM)
# Assay: as above
# Details: first compound 0.08 µM
# In short: as §1
row,Cell Line,relative viability
1,NCI-H2342,0.557
2,NCI-H1623,0.631
3,NCI-H727,0.67
4,NCI-H1650,0.455
5,NCI-H1993,0.618
6,SW 1573,0.183
7,NCI-H838,0.291
8,LCLC-103H,0.555
9,NCI-H520,0.421
10,NCI-H2126,0.889
11,EMC-BAC-2,0.279
12,NCI-H2085,0.698
13,HCC-366,0.102
14,NCI-H1666,0.675
15,NCI-H596,0.956
16,LK-2,0.173

row,Cell Line,relative viability
1,NCI-H2087,0.242
2,NCI-H1648,0.427
3,SK-MES-1,1.06
4,H3255,0.619
5,COR-L23,0.209
6,COR-L 105,0.317
7,LOU-NH91,0.687
8,ChaGo-K-1,0.257
9,HCC-44,1.13
10,NCI-H522,0.551
11,HCC-78,0.253
12,NCI-H2009,0.744
13,NCI-H661,0.34
14,SK-LU-1,0.362
15,NCI-H2228,0.28
16,NCI-H2023,0.475

# Same assay, conditions: first compound 0.8 µM
row,Cell Line,relative viability
1,NCI-H2342,0.498
2,NCI-H1623,0.416
3,NCI-H727,0.621
4,NCI-H1650,0.543
5,NCI-H1993,0.526
6,SW 1573,0.2
7,NCI-H838,0.341
8,LCLC-103H,0.432
9,NCI-H520,0.459
10,NCI-H2126,0.933
11,EMC-BAC-2,0.261
12,NCI-H2085,0.8
13,HCC-366,0.146
14,NCI-H1666,0.661
15,NCI-H596,1.02
16,LK-2,0.166

row,Cell Line,relative viability
1,NCI-H2087,0.263
2,SK-MES-1,1.06
3,H3255,0.217
4,COR-L23,0.202
5,COR-L 105,0.311
6,LOU-NH91,0.657
7,ChaGo-K-1,0.224
8,HCC-44,0.913
9,NCI-H522,0.579
10,HCC-78,0.357
11,NCI-H2009,0.828
12,NCI-H661,0.344
13,SK-LU-1,0.338
14,NCI-H2228,0.351
15,NCI-H2023,0.431

# Same assay, conditions: first compound 2.53 µM
row,Cell Line,relative viability
1,NCI-H2342,0.516
2,NCI-H1623,0.594
3,NCI-H727,0.515
4,NCI-H1650,0.452
5,NCI-H1993,0.574
6,SW 1573,0.219
7,NCI-H838,0.295
8,LCLC-103H,0.484
9,NCI-H520,0.443
10,NCI-H2126,0.822
11,EMC-BAC-2,0.24
12,NCI-H2085,0.667
13,HCC-366,0.12
14,NCI-H1666,0.581
15,NCI-H596,0.891
16,LK-2,0.192

row,Cell Line,relative viability
1,NCI-H2087,0.249
2,SK-MES-1,0.88
3,H3255,0.664
4,COR-L23,0.179
5,COR-L 105,0.352
6,LOU-NH91,0.625
7,ChaGo-K-1,0.233
8,HCC-44,0.937
9,NCI-H522,0.318
10,HCC-78,0.401
11,NCI-H2009,0.715
12,NCI-H661,0.367
13,SK-LU-1,0.272
14,NCI-H2228,0.226
15,NCI-H2023,0.522

# Same assay, conditions: first compound 8 µM
row,Cell Line,relative viability
1,NCI-H2342,0.418
2,NCI-H1623,0.486
3,NCI-H727,0.551
4,NCI-H1650,0.363
5,NCI-H1993,0.549
6,SW 1573,0.24
7,NCI-H838,0.248
8,LCLC-103H,0.396
9,NCI-H520,0.46
10,NCI-H2126,0.794
11,EMC-BAC-2,0.261
12,NCI-H2085,0.748
13,HCC-366,0.19
14,NCI-H1666,0.592
15,NCI-H596,0.919
16,LK-2,0.171

row,Cell Line,relative viability
1,NCI-H2087,0.212
2,NCI-H1648,0.429
3,SK-MES-1,0.816
4,H3255,0.47
5,COR-L23,0.185
6,COR-L 105,0.387
7,LOU-NH91,0.589
8,ChaGo-K-1,0.234
9,HCC-44,0.918
10,NCI-H522,0.541
11,HCC-78,0.314
12,NCI-H2009,0.707
13,NCI-H661,0.336
14,SK-LU-1,0.292
15,NCI-H2228,0.235
16,NCI-H2023,0.342
